Assay results as given in patent US9617170B2, “Water treatment” (Kemira Oyj, priority 2012, dated 2017).
“And” between values parts separate entries of the source, which are not always exact repeats. Equal values may be shown once.

What was measured:
MS2 [1] = conditions: PAA 7-15 mg/l; cited from earlier work
MS2 [2] = experiment: Disinfection of MS2-spiked wastewater effluent with PFA, UV and PFA+UV (plaque count); set-up: species or system RNA coliphages (MS2)
Description: Freshly prepared DEX-135® was added to wastewater effluent (500 ml) that was spiked with RNA coliphages (MS2) to contain 38534 PFU/ml MS2 and mixed continuously with a magnetic stirrer.
UV disinfection using collimator device: The test was done with 50 ml of wastewater effluent The waters were taken in to the cylinders and that was spiked with RNA coliphages (MS2) to contain 38534 PFU/ml MS2 and mixed. 10 ml of this water was taken in to the Petri dishes (diameter 6 cm) and exposed to UV using collimated beam (intensity I0 on the surface of water […]) with continue mixing with magnet stirrer. […]
Determination of microorganisms: The microbiological analyses were started within a few minutes after disinfection segment of the experiment. MS2 coliphages were determined on phage TYG-agar by basing on old double-agar-layer-method (Adams, 1959), with Escherichia coli ATCC 15597 and 13706, respectively as host bacteria and overnight incubation at 37° C. After incubation, virus plaques were counted and results calculated as PFU/ml (PFU=Plaque Forming Unit) and reduction percentage were also determined. […]
The synergistic index was calculated by the method presented by F. C. […] Here, the synergistic index was calculated using the following formula: Synergistic index SI=Qa/QA+Qb/QB.
Synergistic index was calculated for 1 log reduction.

Enterococci = experiment: Disinfection of spiked wastewater effluent with PFA, UV and PFA+UV: Enterococci count; set-up: species or system Enterococcus faecalis; conditions: for PFA in combination with UV (Qa): UV 15 mWs/cm^2; for PFA in combination with UV (Qa) / PFA alone (QA): interpolated
Description: (§1) Since the wastewater effluent might contain less than 100 cfu/ml (10^4 cfu/100 ml) of E. coli and Enterococci these microorganisms were spiked to wastewater so that the numbers of these microorganisms would be at the level of 10^4-10^5 cfu/ml allowing to study better reduction. E. coli ATTC 15597 and Enterococcus faecalis ATCC 29212 were produced in tryptone yeast extract broth as overnight shaker cultures at 37° C. and kept at 4° C. during the experiment. The numbers of E. coli and Enterococci (containing thus both the natural and spiked ones) were enumerated from effluent and effluent after disinfections by using Chromocult agar (Merck) and confirmed by indole production for E. coli and Slanetz-Bartley agar (Labema) for Enterococci incubated at 37° C. for 1 and 2 days, respectively.
(§2) The enumerations of E. coli and Enterococci were done as for fresh wastewater keeping the mixture at 4° C. for less than 5 hours before starting the analysis.
(§3) Only UV-irradiation: The spiked wastewater effluent was mixed and treated in a collimator device (UV intensity of 0.22 mW/cm^2 on surface of the solution) to treat UV-irradiations using UV 15 mWs/cm^2 alone, UV 25 mWs/cm^2 alone and UV 50 mWs/cm^2 alone. The enumerations of E. coli and Enterococci were determined as previously.
(§4) E. coli and Enterococci were analyzed by the spread-plate-technique. E. coli were cultivated on Chromocult agar (Merck, KGaA, Germany) and incubated at 37° C. for 21+3 h (preferring 2 days) and Enterococci on Slanez & Bartley agar (Lab M, IDG plc, Bury, Lancashire, UK) and incubated at 37° C. for 48+3 h. E. coli were confirmed by oxidase. Bacterial numbers were calculated as CFU/ml (CFU=Colony Forming Unit) and reductions were also determined. These bacterial determination methods are describes in ISO-9308-1 (E. coli) and SFS-EN ISO 7899-2 (Enterococci).
(§5) The graphs of Log reduction vs. dose were made and the values below were interpolated from the linear function of the data points.

[3] = Decomposition of 8 spiked micropollutants in secondary waste water by PFA and UV (batch reactor); conditions: total reaction time 15 min
Description: The total reaction time was always kept in 15 min and the treatment temperature was between 10-15° C. The concentrations of each micropollutant were analyzed before and after treatment, and the difference was used to calculate the conversion of each compound. Further, a mean value of the conversions (%) of those 8 compounds was calculated to describe the overall efficiency of the treatment.

E. coli = experiment: Disinfection of spiked wastewater effluent with PFA, UV and PFA+UV: E. coli count; set-up: species or system Escherichia coli; conditions: for PFA in combination with UV (Qa): UV 15 mWs/cm^2; for PFA in combination with UV (Qa) / PFA alone (QA): interpolated
Description: as §1, §2, §3, §4, §5

[4] = PFA 0.25 mg/l alone, 10 minutes contact

In the case of CC(=O)OO [PAA, peracetic acid], the “log reduction of MS2” value (MS2 [1]) is given as 1-1.5.

For O=COO [PFA, performic acid], the “PFA dose for 1 log reduction of MS2” value (MS2 [2]; PFA alone, effluent wastewater, 90% (1 log) removal) was 3.5 mg/l, the “synergy index (SI)” value (MS2 [2]; UV + PFA, 1 log reduction of MS2) was 1 and the “PFA in combination with UV (Qa)” value (Enterococci; Log reduction 2.5) was 0.03 mg/L. The “PFA alone (QA)” value (Enterococci; Log reduction 2.5) was 0.47 mg/L, the “PFA in combination with UV (Qa)” value (Enterococci; Log reduction 3) was 0.19 mg/L and the “PFA alone (QA)” value (Enterococci; Log reduction 3) was 0.56 mg/L. For the same compound, the “PFA in combination with UV (Qa)” value (Enterococci; Log reduction 3.5) was 0.35 mg/L, the “PFA alone (QA)” value (Enterococci; Log reduction 3.5) was 0.66 mg/L and the “PFA in combination with UV (Qa)” value (Enterococci; Log reduction 4) was 0.52 mg/L. The “PFA alone (QA)” value (Enterococci; Log reduction 4) was 0.75 mg/L, the Log reduction (Enterococci; PFA 0.25 mg/l + UV 15 mWs/cm^2) was 4.53 and the Log reduction (Enterococci; [4]) was 3.08. For the same compound, the “average conversion (%) of 8 compounds” value ([3]; PFA 5 mg/l, UV 0 min) was 1.66%, the “average conversion (%) of 8 compounds” value ([3]; PFA 5 mg/l, UV 1 min) was 15.27% and the “average conversion (%) of 8 compounds” value ([3]; PFA 5 mg/l, UV 5 min) was 28.53%. For the same compound, the “average conversion (%) of 8 compounds” value ([3]; PFA 5 mg/l, UV 15 min) was 47.86%, the “average conversion (%) of 8 compounds” value ([3]; PFA 12.5 mg/l, UV 0 min) was 5.15% and the “average conversion (%) of 8 compounds” value ([3]; PFA 12.5 mg/l, UV 1 min) was 19.25%. For the same compound, the “average conversion (%) of 8 compounds” value ([3]; PFA 12.5 mg/l, UV 5 min) was 36.25%, the “average conversion (%) of 8 compounds” value ([3]; PFA 12.5 mg/l, UV 15 min) was 54.18% and the “average conversion (%) of 8 compounds” value ([3]; PFA 25 mg/l, UV 0 min) was 8.98%. The “average conversion (%) of 8 compounds” value ([3]; PFA 25 mg/l, UV 1 min) was 16.64%, the “average conversion (%) of 8 compounds” value ([3]; PFA 25 mg/l, UV 5 min) was 41.61% and the “average conversion (%) of 8 compounds” value ([3]; PFA 25 mg/l, UV 15 min (88 mJ/cm^2)) was 66.78%. The SI (E. coli; Log reduction 1.5, PFA 0.06 mg/l + UV 15 mWs/cm^2) was 0.88, the “PFA in combination with UV (Qa)” value (E. coli; Log reduction 1.5) was 0.06 mg/L and the “PFA alone (QA)” value (E. coli; Log reduction 1.5) was 0.33 mg/L. The SI (E. coli; Log reduction 2, PFA 0.22 mg/l + UV 15 mWs/cm^2) was 1 and 1.02, the “PFA in combination with UV (Qa)” value (E. coli; Log reduction 2) was 0.22 mg/L and the “PFA alone (QA)” value (E. coli; Log reduction 2) was 0.44 mg/L. The Log reduction (E. coli; PFA 0.25 mg/l + UV 25 mWs/cm^2) was 3.52 and the Log reduction (E. coli; [4]) was 1.72.
